{"source": "patent US20220331327A1", "about": "“THE USE OF PARAXANTHINE TO IMPROVE PERFORMANCE IN VIDEO GAMERS” (priority 2021, published 2022)", "format_in_all_cases": "in vivo, human", "key": {"[1]": {"system": "healthy men and women playing video games", "assay": "Profile of Mood States (POMS) during gaming", "details": "200 mg daily; for Tension, mean ± SD / Total Mood Disturbance (Tension + Depression + Anger + Fatigue + Confusion − Vigor), Mean ± SD / Vigor, mean ± SD / Tension, Mean of visit / Total Mood Disturbance, Mean of visit / Vigor, Mean of visit: n = 5; for Tension, Mean of visit / Total Mood Disturbance, Mean of visit / Vigor, Mean of visit: mean of 0, 1, 2 h; for Tension, Δ Baseline / Total Mood Disturbance, Δ Baseline / Vigor, Δ Baseline: versus baseline; for Tension, Δ PLA / Total Mood Disturbance, Δ PLA / Vigor, Δ PLA: versus placebo", "protocol": "The effectiveness of study-products (paraxanthine and placebo) was assessed by measuring in-game performance, cognition during gaming (Stroop Test) and mood status during gaming (Profile of Mood States (POMS)). The POMS was completed pre-dose, after 60 minutes of gaming and immediately after completing 120 minutes of video gaming during all study visits. The POMS measured six subscales of mood, including tension-anxiety, depression-dejection, anger-hostility, vigor-activity, fatigue-inertia, and confusion-bewilderment. Subjects were asked to use a 5-point Likert scale (0=not at all, 1=a little, 2=moderately, 3=quite a bit, 4=extremely), to review a list of 65 words (feelings) and rank the degree to which they are experiencing that feeling at the moment. Since high vigor-activity scores reflect good moods or emotions, whereas low scores in the other subscales reflect a good mood or emotion, the total mood disturbance (TMD) score was computed by adding the five negative subscale scores (tension-anxiety, depression-dejection, anger-hostility, fatigue-inertia, and confusion-bewilderment) and subtracting the vigor-activity score. Higher numeric values of the TMD score indicate a greater degree of mood disturbance."}, "[2]": {"system": "healthy subject", "assay": "Video game Tetris, game performance measured by play time", "details": "100 mg prior to playing Tetris; one subject", "source_text": "Each of the three games were separated by a one-week washout period. In Tetris, the player brings down blocks from the top of the screen. The player can move the blocks around, either left to right and/or you can rotate them. The blocks fall at a certain rate, but the player can make them fall faster if he/she is sure of the positioning. The game Tetris becomes more challenging the longer you play. It becomes faster the better the player performs. The player has to make the same decisions but under a higher level of pressure. Each time the player clears a line in Tetris, the player is awarded more points. Each time the pieces reach the top of the screen, the game is over. Game performance was measured by play time. The player was not allowed to press a button to increase the speed of the current piece's descent or cause the piece to drop and lock into place immediately, known as a “soft drop” and a “hard drop”, respectively."}, "[3]": {"system": "healthy subject", "assay": "Arcade video game GALAGA, game score", "details": "300 mg prior to playing GALAGA; one subject", "source_text": "Each of the three game sessions were separated by a one-week washout period. In […], the player mans a lone […] bottom of the screen, which must prevent the […] forces from destroying all of mankind. The objective of each stage is to defeat all of the […] aliens, which will fly into formation from the top and sides of the screen."}, "[4]": {"details": "3 weeks, listed as paraxanthine"}, "[5]": {"details": "6 weeks, listed as paraxanthine"}}}
{"smiles": "Cn1c(=O)[nH]c2ncn(C)c2c1=O", "note": "[Paraxanthine, paraxanthine]", "values": [{"measurement": "Tension, mean ± SD", "setting": "[1]; 3 weeks, 0 h", "value": "4.0 ± 2.8"}, {"measurement": "Total Mood Disturbance (Tension + Depression + Anger + Fatigue + Confusion − Vigor), Mean ± SD", "setting": "[1]; 3 weeks, 0 h", "value": "−6.2 ± 16.6"}, {"measurement": "Vigor, mean ± SD", "setting": "[1]; 3 weeks, 0 h", "value": "20.4 ± 6.8"}, {"measurement": "Tension, mean ± SD", "setting": "[1]; 3 weeks, 1 h", "value": "2.0 ± 1.2"}, {"measurement": "Total Mood Disturbance (Tension + Depression + Anger + Fatigue + Confusion − Vigor), Mean ± SD", "setting": "[1]; 3 weeks, 1 h", "value": "−6.8 ± 13.3"}, {"measurement": "Vigor, mean ± SD", "setting": "[1]; 3 weeks, 1 h", "value": "18.0 ± 10.0"}, {"measurement": "Tension, mean ± SD", "setting": "[1]; 3 weeks, 2 h", "value": "2.4 ± 1.3"}, {"measurement": "Total Mood Disturbance (Tension + Depression + Anger + Fatigue + Confusion − Vigor), Mean ± SD", "setting": "[1]; 3 weeks, 2 h", "value": "−6.4 ± 15.8"}, {"measurement": "Vigor, mean ± SD", "setting": "[1]; 3 weeks, 2 h", "value": "16.4 ± 10.0"}, {"measurement": "Tension, Mean of visit", "setting": "[1]; 3 weeks", "value": 2.8}, {"measurement": "Total Mood Disturbance, Mean of visit", "setting": "[1]; 3 weeks", "value": "−6.5"}, {"measurement": "Vigor, Mean of visit", "setting": "[1]; 3 weeks", "value": 18.3}, {"measurement": "Tension, mean ± SD", "setting": "[1]; 6 weeks, 0 h", "value": "2.6 ± 1.8"}, {"measurement": "Total Mood Disturbance (Tension + Depression + Anger + Fatigue + Confusion − Vigor), Mean ± SD", "setting": "[1]; 6 weeks, 0 h", "value": "−8.2 ± 13.8"}, {"measurement": "Vigor, mean ± SD", "setting": "[1]; 6 weeks, 0 h", "value": "18.6 ± 8.6"}, {"measurement": "Tension, mean ± SD", "setting": "[1]; 6 weeks, 1 h", "value": "2.0 ± 1.0"}, {"measurement": "Total Mood Disturbance (Tension + Depression + Anger + Fatigue + Confusion − Vigor), Mean ± SD", "setting": "[1]; 6 weeks, 1 h", "value": "−11.2 ± 12.4"}, {"measurement": "Vigor, mean ± SD", "setting": "[1]; 6 weeks, 1 h", "value": "18.2 ± 9.2"}, {"measurement": "Tension, mean ± SD", "setting": "[1]; 6 weeks, 2 h", "value": "2.2 ± 1.3"}, {"measurement": "Total Mood Disturbance (Tension + Depression + Anger + Fatigue + Confusion − Vigor), Mean ± SD", "setting": "[1]; 6 weeks, 2 h", "value": "−8.8 ± 13.4"}, {"measurement": "Vigor, mean ± SD", "setting": "[1]; 6 weeks, 2 h", "value": "17.2 ± 9.8"}, {"measurement": "Tension, Mean of visit", "setting": "[1]; 6 weeks", "value": 2.3}, {"measurement": "Total Mood Disturbance, Mean of visit", "setting": "[1]; 6 weeks", "value": "−9.4"}, {"measurement": "Vigor, Mean of visit", "setting": "[1]; 6 weeks", "value": 18.0}, {"measurement": "Tension, mean ± SD", "setting": "[1]; Baseline visit, 0 h", "value": "5.4 ± 2.2"}, {"measurement": "Total Mood Disturbance (Tension + Depression + Anger + Fatigue + Confusion − Vigor), Mean ± SD", "setting": "[1]; Baseline visit, 0 h", "value": "−2.2 ± 10.5"}, {"measurement": "Vigor, mean ± SD", "setting": "[1]; Baseline visit, 0 h", "value": "19.2 ± 5.3"}, {"measurement": "Tension, mean ± SD", "setting": "[1]; Baseline visit, 1 h", "value": "5.6 ± 5.4"}, {"measurement": "Total Mood Disturbance (Tension + Depression + Anger + Fatigue + Confusion − Vigor), Mean ± SD", "setting": "[1]; Baseline visit, 1 h", "value": "−2.6 ± 18.6"}, {"measurement": "Vigor, mean ± SD", "setting": "[1]; Baseline visit, 1 h", "value": "17.4 ± 6.5"}, {"measurement": "Tension, mean ± SD", "setting": "[1]; Baseline visit, 2 h", "value": "2.8 ± 1.3"}, {"measurement": "Total Mood Disturbance (Tension + Depression + Anger + Fatigue + Confusion − Vigor), Mean ± SD", "setting": "[1]; Baseline visit, 2 h", "value": "−0.4 ± 16.1"}, {"measurement": "Vigor, mean ± SD", "setting": "[1]; Baseline visit, 2 h", "value": "13.2 ± 6.4"}, {"measurement": "Tension, Mean of visit", "setting": "[1]; Baseline visit", "value": 4.6}, {"measurement": "Total Mood Disturbance, Mean of visit", "setting": "[1]; Baseline visit", "value": "−1.7"}, {"measurement": "Vigor, Mean of visit", "setting": "[1]; Baseline visit", "value": 16.6}, {"measurement": "Tension, Δ Baseline", "setting": "[1]; 3 weeks", "value": "−39.1", "unit": "%"}, {"measurement": "Total Mood Disturbance, Δ Baseline", "setting": "[1]; 3 weeks", "value": "−282", "unit": "%"}, {"measurement": "Vigor, Δ Baseline", "setting": "[1]; 3 weeks", "value": "+10.2%"}, {"measurement": "Vigor, Δ Baseline", "setting": "[1]; [4]", "value": 10.2, "unit": "%"}, {"measurement": "Tension, Δ PLA", "setting": "[1]; 3 weeks", "value": "−51.7", "unit": "%"}, {"measurement": "Total Mood Disturbance, Δ PLA", "setting": "[1]; 3 weeks", "value": "−166", "unit": "%"}, {"measurement": "Vigor, Δ PLA", "setting": "[1]; 3 weeks", "value": "+28.9%"}, {"measurement": "Vigor, Δ PLA", "setting": "[1]; [4]", "value": 28.9, "unit": "%"}, {"measurement": "Tension, Δ Baseline", "setting": "[1]; 6 weeks", "value": "−50.0", "unit": "%"}, {"measurement": "Total Mood Disturbance, Δ Baseline", "setting": "[1]; 6 weeks", "value": "−453", "unit": "%"}, {"measurement": "Vigor, Δ Baseline", "setting": "[1]; 6 weeks", "value": "+8.4%"}, {"measurement": "Vigor, Δ Baseline", "setting": "[1]; [5]", "value": 8.4, "unit": "%"}, {"measurement": "Tension, Δ PLA", "setting": "[1]; 6 weeks", "value": "−61.0", "unit": "%"}, {"measurement": "Total Mood Disturbance, Δ PLA", "setting": "[1]; 6 weeks", "value": "−189", "unit": "%"}, {"measurement": "Vigor, Δ PLA", "setting": "[1]; 6 weeks", "value": "+59.3%"}, {"measurement": "Vigor, Δ PLA", "setting": "[1]; [5]", "value": 59.3, "unit": "%"}, {"measurement": "worsening of total mood disturbance during continued gaming", "setting": "[1]; after 3 and 6 weeks", "value": "an effect that was not observed in the paraxanthine group"}, {"measurement": "total mood disturbance, effect in words", "setting": "[1]; after 3 and 6 weeks, compared to baseline and to placebo", "value": "improved total mood disturbance"}, {"measurement": "decrease of feelings of tension-anxiety compared to baseline", "setting": "[1]; after 3 weeks", "value": 39.1, "unit": "%"}, {"measurement": "decrease of feelings of tension-anxiety compared to placebo", "setting": "[1]; after 3 weeks", "value": 51.7, "unit": "%"}, {"measurement": "decrease of feelings of tension-anxiety compared to baseline", "setting": "[1]; after 6 weeks", "value": 50, "unit": "%"}, {"measurement": "decrease of feelings of tension-anxiety compared to placebo", "setting": "[1]; after 6 weeks", "value": 61.0, "unit": "%"}, {"measurement": "course of tension with duration of play", "setting": "[1]; the longer the subject played", "value": "tension decreased in the paraxanthine group the longer the subject played"}, {"measurement": "gaming performance (play time), effect in words", "setting": "[2]", "value": "increased gaming performance compared to placebo, and compared to caffeine intake"}, {"measurement": "average score over 5 games", "setting": "[3]", "value": "118,702"}, {"measurement": "change of average score compared to placebo", "setting": "[3]", "value": "+79.4%"}, {"measurement": "change of personal best compared to placebo", "setting": "[3]", "value": "+86.6%"}, {"measurement": "personal best (high score) of the 5 games", "setting": "[3]", "value": "161,070"}]}
